Reference: ChEMBL document CHEMBL3233011, “Structural modifications of CH(OH)-DAPYs as new HIV-1 non-nucleoside reverse transcriptase inhibitors” (Bioorg Med Chem, 2014)
pEC50, pIC50: −log10 of the molar value.

How the values were obtained:
[1] = tested on: Human immunodeficiency virus 2; experiment: Antiviral activity against HIV2 ROD infected in human MT4 cells assessed as inhibition of viral cytopathogenicity after 5 days by MTT assay; type: functional, organism-based; settings: Human immunodeficiency virus 2, ISOLATE ROD, MT4, 120 h
[2] = tested on: Human immunodeficiency virus 1; experiment: Antiviral activity against HIV1 harboring RT K103N/Y181C double mutant infected in human MT4 cells assessed as inhibition of viral cytopathogenicity after 5 days by MTT assay; type: functional, organism-based; settings: Human immunodeficiency virus 1, MT4, 120 h
[3] = tested on: Human immunodeficiency virus 1; experiment: Antiviral activity against HIV1 3B infected in human MT4 cells assessed as inhibition of viral cytopathogenicity after 5 days by MTT assay; type: functional, organism-based; settings: Human immunodeficiency virus 1, 3B, MT4, 120 h
[4] = Cytotoxicity against mock-infected human MT4 cells after 5 days by MTT assay; type: cell-based
[5] = biological target: Human immunodeficiency virus type 1 reverse transcriptase (Human immunodeficiency virus 1, UniProt Q72547); experiment: Inhibition of wild-type HIV1 reverse transcriptase p66/p51 after 40 mins by spectrophotometry
[6] = tested on: Human immunodeficiency virus 1; experiment: Ratio of nevirapine EC50 to compound EC50 for HIV1 3B infected in human MT4 cells; type: functional
[7] = tested on: Human immunodeficiency virus 1; experiment: Ratio of delaviridine EC50 to compound EC50 for HIV1 3B infected in human MT4 cells; type: functional

SMILES	pEC50 [1]	pEC50 [2]	pEC50 [3]	CC50 at 120 h [4]	pIC50 [5]	Ratio EC50 [6]	Ratio EC50 [7]
COc1ccc(C(C)(O)c2ccnc(Nc3ccc(C#N)cc3)n2)cc1 (configuration not stated)	< 4.44	< 4.44	6.46	35.9 µM			
CC(C)(C)c1ccc(C(C)(O)c2ccnc(Nc3ccc(C#N)cc3)n2)cc1 (configuration not stated)	< 4.50	< 4.50	6.25	31.8 µM			
CC(O)(c1ccccc1)c1ccnc(Nc2ccc(C#N)cc2)n1 (configuration not stated)	< 4.34	< 4.34	6.54	45.4 µM	5.70		
Cc1ccc(C(C)(O)c2ccnc(Nc3ccc(C#N)cc3)n2)cc1 (configuration not stated)	< 4.40	< 4.40	7.17	39.3 µM	6.80	2	2
CC(O)(c1ccc(F)cc1)c1ccnc(Nc2ccc(C#N)cc2)n1 (configuration not stated)	< 4.37	< 4.37	5.60	43.1 µM			
CC(O)(c1ccc(Cl)cc1)c1ccnc(Nc2ccc(C#N)cc2)n1 (configuration not stated)	< 4.41	< 4.41	6.50	39 µM			
CC(O)(c1ccc(Br)cc1)c1ccnc(Nc2ccc(C#N)cc2)n1 (configuration not stated)	< 4.55	< 4.55	6.52	28.2 µM			
CC(O)(c1cccc(F)c1)c1ccnc(Nc2ccc(C#N)cc2)n1 (configuration not stated)	< 4.30	< 4.27	6.70	53.2 µM	6.20		
CC(O)(c1cccc(Cl)c1)c1ccnc(Nc2ccc(C#N)cc2)n1 (configuration not stated)	< 4.43	< 4.43	6.59	37.5 µM			
CC(O)(c1cccc(Br)c1)c1ccnc(Nc2ccc(C#N)cc2)n1 (configuration not stated)	< 4.47	< 4.47	6.72	33.7 µM	6.41		
Cc1cnc(Nc2ccc(C#N)cc2)nc1C(C)(O)c1ccc(F)cc1 (configuration not stated)	< 4.21		< 4.21	61.5 µM			
Cc1cc(C(C)(O)c2ccc(F)cc2)nc(Nc2ccc(C#N)cc2)n1 (configuration not stated)	< 4.42	< 4.42	5.45	38.2 µM			
CC(O)(c1ccnc(Nc2ccc(C#N)cc2)n1)c1cccc2ccccc12 (configuration not stated)	< 4.51	< 4.51	6.41	30.7 µM			
C=CC(O)(c1ccc(Br)cc1)c1ccnc(Nc2ccc(C#N)cc2)n1 (configuration not stated)	< 4.50	< 4.50	6.45	31.7 µM			
CCC(O)(c1ccc(Br)cc1)c1ccnc(Nc2ccc(C#N)cc2)n1 (configuration not stated)	< 4.50	< 4.50	5.68	31.3 µM			
N#Cc1ccc(Nc2nccc(C(O)(c3ccc(Br)cc3)C3CC3)n2)cc1 (configuration not stated)	< 4.48	< 4.48	5.51	33.2 µM			
Cc1cnc(Nc2ccc(C#N)cc2)nc1C(C)(O)c1ccc(C(C)(C)C)cc1 (configuration not stated)	< 4.51	< 4.51	5.14	31.1 µM			
Cc1cc(C(C)(O)c2ccc(C(C)(C)C)cc2)nc(Nc2ccc(C#N)cc2)n1 (configuration not stated)	< 4.52	< 4.52	5.90	30.4 µM			
CC(C)Nc1cccnc1N1CCN(C(=O)c2cc3cc(NS(C)(=O)=O)ccc3[nH]2)CC1 [DELAVIRDINE]		< 4.36	6.09	> 43.8 µM			
O=C1Nc2ccc(Cl)cc2[C@@](C#CC2CC2)(C(F)(F)F)O1 [EFAVIRENZ]			7.66	> 6.3 µM			
Cc1cc(C#N)cc(C)c1Oc1nc(Nc2ccc(C#N)cc2)nc(N)c1Br [ETRAVIRINE]	< 4.56						
Cc1ccnc2c1NC(=O)c1cccnc1N2C1CC1 [NEVIRAPINE]		6.05		> 15 µM			
Cc1cn([C@H]2C[C@H](N=[N+]=[N-])[C@@H](CO)O2)c(=O)[nH]c1=O [ZIDOVUDINE]		8.10		> 93.6 µM			
